Test results from US20250326771A1, “PIPERAZINE DERIVATIVES USEFUL IN HIV THERAPY” (VIIV HEALTHCARE COMPANY, priority 2022, published 2025).
Where two headings read alike, the source gives them in different places.

Key:
[1] = target: XIAP-BIR3 (Homo sapiens (Human), UniProt P98170); test: BIR binding assay (FRET competition), XIAP BIR3; details: for XIAP BIR3 vs BIR2 separation window: fold separation (FS) for XIAP
Outline: (§1)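 His-tagged domains (50 nM cIAP1-BIR3, 325 nM cIAP2-BIR2, 325 nM cIAP1-BIR2, 100 nM XIAP-BIR3) compete with compounds for a 200 nM AlexaFluor647-labelled SMAC/DIABLO peptide in HEPES buffer, pH 7.4, for 60 min. Then 2 nM Eu-W1024 is added for 30 min. The 615/665 nm ratio is fit by four-parameter fit to give IC50.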

[2] = tested on: Jurkat HIV-luciferase clones; test: Jurkat latency reversal assay; assay type: cell-based; details: Homo sapiens, 48 h; Jurkat latency reversal assay potency; read-out: Jurkat pEC50 (converted)
Outline: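 A 1:1:1 mix of three Jurkat clones (C16, 115, N6) carrying integrated luciferase-expressing HIV proviruses, 5,000 cells/well, was exposed to 3-fold, 14-point compound titrations from 10 μM at 0.5% DMSO for 48 h at 37° C. Steady-Glo luminescence was fitted by four-parameter logistic regression to give EC50 and maximal percent activation relative to vehicle.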

[3] = target: cIAP1-BIR2 (Homo sapiens (Human), UniProt Q13490); test: BIR binding assay (FRET competition), cIAP1 BIR2
Outline: as §1

[4] = target: XIAP-BIR2 (Homo sapiens (Human), UniProt P98170); test: BIR binding assay (FRET competition), XIAP BIR2; details: read-out: XIAP BIR2 (pIC50) (converted)
Outline: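 Compounds in a 15-point, 3-fold series competed with an AlexaFluor647 SMAC peptide (AVPIAQKSE, 200 nM) for 200 nM His-tagged XIAP-BIR2 over 60 min in pH 7.4 HEPES/CHAPS/DTT buffer. Eu-W1024 (2 nM) was then added for 30 min. IC50 and pIC50 were derived from the 615 nm/665 nm emission ratio by variable-slope fit.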

[5] = target: cIAP1-BIR3 (Homo sapiens (Human), UniProt Q13490); test: BIR binding assay (FRET competition), cIAP1 BIR3; details: for cIAP1 BIR3 vs BIR2 separation window: fold separation (FS) for cIAP1
Outline: as §1

[6] = target: cIAP2-BIR2 (Homo sapiens (Human), UniProt Q13489); test: BIR binding assay (FRET competition), cIAP2 BIR2
Outline: as §1

[7] = target: cIAP2-BIR3 (Homo sapiens (Human), UniProt Q13489); test: BIR binding assay (FRET competition), cIAP2 BIR3; details: for cIAP2 BIR3 vs BIR2 separation window: fold separation (FS) for cIAP2
Sequence of cIAP2-BIR3 (Q13489 238-349): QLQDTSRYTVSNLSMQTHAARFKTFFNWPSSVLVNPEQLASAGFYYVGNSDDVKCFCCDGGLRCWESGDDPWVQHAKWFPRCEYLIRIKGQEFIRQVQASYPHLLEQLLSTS

Sequence of XIAP-BIR3 (P98170 241-356): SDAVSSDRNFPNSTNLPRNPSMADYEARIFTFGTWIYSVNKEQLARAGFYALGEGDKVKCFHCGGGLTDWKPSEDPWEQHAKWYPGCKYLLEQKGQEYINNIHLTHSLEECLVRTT
Sequence of cIAP1-BIR3 (Q13490 253-363): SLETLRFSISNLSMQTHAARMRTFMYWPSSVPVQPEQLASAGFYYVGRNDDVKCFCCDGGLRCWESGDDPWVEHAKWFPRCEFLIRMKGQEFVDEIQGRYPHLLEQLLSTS
Sequence of XIAP-BIR2 (P98170 124-240): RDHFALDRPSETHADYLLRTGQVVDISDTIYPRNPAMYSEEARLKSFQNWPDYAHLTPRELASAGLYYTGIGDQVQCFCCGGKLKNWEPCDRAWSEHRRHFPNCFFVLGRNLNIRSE
Sequence of cIAP2-BIR2 (Q13489 158-242): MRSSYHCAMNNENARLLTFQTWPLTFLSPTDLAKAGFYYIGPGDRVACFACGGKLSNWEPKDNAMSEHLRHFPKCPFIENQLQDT
Sequence of cIAP1-BIR2 (Q13490 173-257): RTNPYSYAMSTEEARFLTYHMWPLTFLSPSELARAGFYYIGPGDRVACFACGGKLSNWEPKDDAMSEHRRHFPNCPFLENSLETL

SMILES	IC50 [1]	XIAP BIR3 vs BIR2 separation window [1]	EC50 [2]	IC50 [3]	IC50 ([4]; FRET competition)	IC50 [5]	IC50 [6]	IC50 [7]	cIAP2 BIR3 vs BIR2 separation window [7]	IC50 ([4]; FRET competition binding)	cIAP1 BIR3 vs BIR2 separation window [5]
C[C@@H]1CN(CC(=O)N2CC(C)(C)c3ncc(Nc4ccc(F)cc4)cc32)[C@@H](CN2CCO[C@H](COc3cccc(OC[C@@H]4CN(C[C@H]5CN[C@H](C)CN5CC(=O)N5CC(C)(C)c6ncc(Nc7ccc(F)cc7)cc65)CCO4)c3)C2)CN1 [Compound 143, -[6-(4-fluoroanilino)-3,3-dimethyl-2H-pyrrolo[3,2-b]pyridin-1-yl]-2-[(2R,5R)-2-[[(2S)-2-[[3-[[(2S)-4-[[(2R,5R)-1-[2-[6-(4-fluoroanilino)-3,3-dimethyl-2H-pyrrolo[3,2-b]pyridin-1-yl]-2-oxo-ethyl]-5-methyl-piperazin-2-yl]methyl]morpholin-2-yl]methoxy]phenoxy]methyl]morpholin-4-yl]methyl]-5-methyl-piperazin-1-yl]ethenone]	31.6 to 501 nM	+++ (10,000>FS>1,000)	316 to 3310 nM	10000 to 51300 nM	10000 to 51300 nM	31.6 to 501 nM	10000 to 51300 nM	15.8 to 31.6 nM	++++ (FS>10,000)		
C[C@@H]1CN(CC(=O)N2CC(C)(C)c3[nH]c(=O)c(Cc4ccc(F)cc4)cc32)[C@@H](CN2CCO[C@H](COCc3cccc(COC[C@@H]4CN(C[C@H]5CN[C@H](C)CN5CC(=O)N5CC(C)(C)c6[nH]c(=O)c(Cc7ccc(F)cc7)cc65)CCO4)n3)C2)CN1 [Example 84, 1,1′-(2,2′-((3R,3′R,6R,6′R)-(((2S,2'S)-(((pyridine-2,6-diylbis(methylene))bis(oxy))bis(methylene))bis(morpholine-2,4-diyl))bis(methylene))bis(3-methylpiperazine-6,1-diyl))bis(acetyl))bis(6-(4-fluorobenzyl)-3,3-dimethyl-1,2,3,4-tetrahydro-5H-pyrrolo[3,2-b]pyridin-5-one)]	15.8 to 31.6 nM	++++ (FS>10,000)	0.49 to 12.6 nM	1000 to 3160 nM		7.94 to 15.8 nM	3160 to 10000 nM	7.94 to 15.8 nM	+++ (10,000>FS>1,000)	10000 to 51300 nM	+++ (10,000>FS>1,000)
C[C@@H]1CN(CC(=O)N2CC(C)(C)c3[nH]c(=O)c(Cc4ccc(Cl)cc4C(=O)N(C)C)cc32)[C@@H](CN2CCO[C@H](C(=O)NCc3ccc(CNC(=O)[C@@H]4CN(C[C@H]5CN[C@H](C)CN5CC(=O)N5CC(C)(C)c6[nH]c(=O)c(Cc7ccc(Cl)cc7C(=O)N(C)C)cc65)CCO4)cc3)C2)CN1 [Compound 172, (2S,2′S)-N,N′-(1,4-phenylenebis(methylene)) bis(4-(((2R,5R)-1-(2-(6-(4-chloro-2-(dimethylcarbamoyl)benzyl)-3,3-dimethyl-5-oxo-2,3,4,5-tetrahydro-1H-pyrrolo[3,2-b]pyridin-1-yl)-2-oxoethyl)-5-methylpiperazin-2-yl)methyl)morpholine-2-carboxamide)]	31.6 to 501 nM	++++ (FS>10,000)	316 to 3310 nM	10000 to 51300 nM	10000 to 51300 nM	7.94 to 15.8 nM	10000 to 51300 nM	7.94 to 15.8 nM	++++ (FS>10,000)		+++ (10,000>FS>1,000)
C[C@@H]1CN(CC(=O)N2CC(C)(C)c3[nH]c(=O)c(Cc4ccc(F)cc4)cc32)[C@@H](CN2CCC(CC(=O)N(C)Cc3ccc(CN(C)C(=O)CC4CCN(C[C@H]5CN[C@H](C)CN5CC(=O)N5CC(C)(C)c6[nH]c(=O)c(Cc7ccc(F)cc7)cc65)CC4)cc3)CC2)CN1 [Example 106, N,N′-(1,4-phenylenebis(methylene))bis(2-(1-(((2R,5R)-1-(2-(6-(4-fluorobenzyl)-3,3-dimethyl-5-oxo-2,3,4,5-tetrahydro-1H-pyrrolo[3,2-b]pyridin-1-yl)-2-oxoethyl)-5-methylpiperazin-2-yl)methyl)piperidin-4-yl)-N-methylacetamide)]	1.38 to 7.94 nM	++++ (FS>10,000)	12.6 to 63.1 nM	1000 to 3160 nM		1.38 to 7.94 nM	1000 to 3160 nM	1.38 to 7.94 nM	+++ (10,000>FS>1,000)	10000 to 51300 nM	+++ (10,000>FS>1,000)
C[C@@H]1CN(CC(=O)N2CC(C)(C)c3[nH]c(=O)c(Cc4ccc(F)cc4)cc32)[C@@H](CN2CCN(C(=O)CCCCCCCCC(=O)N3CCN(C[C@H]4CN[C@H](C)CN4CC(=O)N4CC(C)(C)c5[nH]c(=O)c(Cc6ccc(F)cc6)cc54)[C@H](C)C3)C[C@H]2C)CN1 [Example 3, 1,10-bis((R)-4-(((2R,5R)-1-(2-(6-(4-fluorobenzyl)-3,3-dimethyl-5-oxo-2,3,4,5-tetrahydro-1H-pyrrolo[3,2-b]pyridin-1-yl)-2-oxoethyl)-5-methylpiperazin-2-yl)methyl)-3-methylpiperazin-1-yl)decane-1,10-dione]	31.6 to 501 nM	+++ (10,000>FS>1,000)	12.6 to 63.1 nM	22.4 to 1000 nM		7.94 to 15.8 nM	1000 to 3160 nM	15.8 to 31.6 nM	++ (1,000>FS>100)	10000 to 51300 nM	++ (1,000>FS>100)
C[C@@H]1CN(CC(=O)N2CC(C)(C)c3[nH]c(=O)c(Cc4ccc(F)cc4)cc32)[C@@H](CN2CCO[C@H](C(=O)NCCNC(=O)[C@@H]3CN(C[C@H]4CN[C@H](C)CN4CC(=O)N4CC(C)(C)c5[nH]c(=O)c(Cc6ccc(F)cc6)cc54)CCO3)C2)CN1 [Example 128, (2S,2'S)-N,N′-(ethane-1,2-diyl)bis(4-(((2R,5R)-1-(2-(6-(4-fluorobenzyl)-3,3-dimethyl-5-oxo-2,3,4,5-tetrahydro-1H-pyrrolo[3,2-b]pyridin-1-yl)-2-oxoethyl)-5-methylpiperazin-2-yl)methyl)morpholine-2-carboxamide)]	15.8 to 31.6 nM	++++ (FS>10,000)	316 to 3310 nM	3160 to 10000 nM		15.8 to 31.6 nM	3160 to 10000 nM	7.94 to 15.8 nM	+++ (10,000>FS>1,000)	10000 to 51300 nM	+++ (10,000>FS>1,000)
C[C@@H]1CN(CC(=O)N2CC(C)(C)c3[nH]c(=O)c(Cc4ccc(F)cc4)cc32)[C@@H](CN2CCC(CN(C)Cc3ccc(CN(C)CC4CCN(C[C@H]5CN[C@H](C)CN5CC(=O)N5CC(C)(C)c6[nH]c(=O)c(Cc7ccc(F)cc7)cc65)CC4)cc3)CC2)CN1 [Example 100, 1,1′-(2,2′-((3R,3′R,6R,6′R)-(((((1,4-phenylenebis(methylene))bis(methylazanediyl))bis(methylene))bis(piperidine-4,1-diyl))bis(methylene))bis(3-methylpiperazine-6,1-diyl))bis(acetyl))bis(6-(4-fluorobenzyl)-3,3-dimethyl-1,2,3,4-tetrahydro-5H-pyrrolo[3,2-b]pyridin-5-one)]	15.8 to 31.6 nM	++++ (FS>10,000)	0.49 to 12.6 nM	1000 to 3160 nM		7.94 to 15.8 nM	3160 to 10000 nM	7.94 to 15.8 nM	+++ (10,000>FS>1,000)	10000 to 51300 nM	+++ (10,000>FS>1,000)
Cc1ccc(Cc2cc3c([nH]c2=O)C(C)(C)CN3C(=O)CN2C[C@@H](C)NC[C@@H]2CN2CCO[C@H](C(=O)NCc3ccc(CNC(=O)[C@@H]4CN(C[C@H]5CN[C@H](C)CN5CC(=O)N5CC(C)(C)c6[nH]c(=O)c(Cc7ccc(C)cc7)cc65)CCO4)cc3)C2)cc1 [Compound 163, (2S,2′S)-N,N′-(1,4-phenylenebis(methylene))bis(4-(((2R,5R)-1-(2-(3,3-dimethyl-6-(4-methylbenzyl)-5-oxo-2,3,4,5-tetrahydro-1H-pyrrolo[3,2-b]pyridin-1-yl)-2-oxoethyl)-5-methylpiperazin-2-yl)methyl)morpholine-2-carboxamide)]	7.94 to 15.8 nM	++++ (FS>10,000)	12.6 to 63.1 nM	22.4 to 1000 nM	10000 to 51300 nM	1.38 to 7.94 nM	22.4 to 1000 nM	1.38 to 7.94 nM	+++ (10,000>FS>1,000)		++ (1,000>FS>100)
